The text below walks through data of ChEMBL document CHEMBL4118205, “Design, synthesis and biological evaluation of artemisinin derivatives containing fluorine atoms as anticancer agents” (Bioorg Med Chem Lett, 2018).

Assay [1] relates to L02. Kind of assay: Cytotoxicity against human L02 cells assessed as reduction in cell viability after 72 hrs by MTT assay. It counts as functional, cell-based. The settings on record: L02, 72 h. A general note: Tetrazolium dyes change colour on reduction, which living cells bring about.
Another assay relates to A-375. Kind of assay: Cytotoxicity against human A375 cells assessed as reduction in cell viability after 72 hrs by MTT assay. It counts as functional, cell-based. The settings on record: A-375, 72 h.
Assay [2] relates to U-87 MG. Put plainly: Cytotoxicity against human U87 cells assessed as reduction in cell viability after 72 hrs by MTT assay. Type of assay: functional, cell-based, U-87MG ATCC.
Assay [3] has as its system SH-SY5Y. Put plainly: Cytotoxicity against human SH-SY5Y cells assessed as reduction in cell viability after 72 hrs by MTT assay. It counts as functional, cell-based.
In assay [4] the test system is MCF7. Kind of assay: Cytotoxicity against human MCF7 cells assessed as reduction in cell viability after 72 hrs by MTT assay. Type of assay: functional, cell-based. To be noted: MCF7, 72 h.
Assay [5] relates to A549. Put plainly: Cytotoxicity against human A549 cells assessed as reduction in cell viability after 72 hrs by MTT assay. Type of assay: functional, cell-based. The settings on record: A549, 72 h.
In assay [6] the test system is MDA-MB-231. Put plainly: Cytotoxicity against human MDA-MB-231 cells assessed as reduction in cell viability after 72 hrs by MTT assay. The settings on record: MDA-MB-231, 72 h. It counts as functional, cell-based.
Assay [7] deals with L02. Put plainly: Cytotoxicity against human L02 cells assessed as reduction in cell viability after 24 to 72 hrs by MTT assay. Type of assay: functional, cell-based.
Assay [8] concerns A549. Kind of assay: Cytotoxicity against human A549 cells assessed as reduction in cell viability after 24 to 72 hrs by MTT assay. Type of assay: functional, cell-based.
In assay [9] the test system is SH-SY5Y. Kind of assay: Cytotoxicity against human SH-SY5Y cells assessed as reduction in cell viability after 24 to 72 hrs by MTT assay. It counts as functional, cell-based.
Assay [10] relates to MDA-MB-231. Kind of assay: Cytotoxicity against human MDA-MB-231 cells assessed as reduction in cell viability after 24 to 72 hrs by MTT assay. Type of assay: functional, cell-based.
Assay [11] relates to U-87 MG. Put plainly: Cytotoxicity against human U87 cells assessed as reduction in cell viability after 24 to 72 hrs by MTT assay. It counts as functional, cell-based, U-87MG ATCC.
For assay [12], the system named is MCF7. Put plainly: Cytotoxicity against human MCF7 cells assessed as reduction in cell viability after 24 to 72 hrs by MTT assay. It counts as functional, cell-based.

Each structure is given as a SMILES string. A value given as a limit tells only on which side of the number the result lay.

What is called IC50 is the concentration needed to halve the response being measured. On to `C[C@H]1[C@H](Nc2ccc(SC(F)(F)F)cc2)O[C@@H]2O[C@@]3(C)CC[C@H]4[C@H](C)CC[C@@H]1[C@@]24OO3`, for which the IC50 in the assay on L02 [1] was found to be 9.3 µM; with A-375 it was 26.5 µM; in the assay with U-87 MG [2] it was 28 µM; in the assay with SH-SY5Y [3], 20.3 µM; in the assay with MCF7 [4], 5.3 µM; with A549 [5] it was 41.8 µM. Besides, the IC50 in the assay on MDA-MB-231 [6] was 22.9 µM.

With `C[C@H]1[C@H](N2CCN(C(=O)Nc3ccc(C(F)(F)F)cc3)CC2)O[C@@H]2O[C@@]3(C)CC[C@H]4[C@H](C)CC[C@@H]1[C@@]24OO3`, the half-inhibitory concentration (IC50) in the assay with L02 [1] amounted to 4 µM; in the assay on A-375, 15 µM; with U-87 MG [2] it was 15.2 µM; in the assay on SH-SY5Y [3], 3.2 µM; in the assay on MCF7 [4], 2.7 µM; in the assay on A549 [5], 21.1 µM. For the same molecule, in the assay with MDA-MB-231 [6], the concentration for half-maximal inhibition (IC50) came out at 5.8 µM.

As to `C[C@@H]1CC[C@H]2[C@@H](C)C(=O)O[C@@H]3O[C@@]4(C)CC[C@@H]1[C@]32OO4` [ARTEMISININ], the IC50 in the assay on L02 [1], with A-375, in the assay on U-87 MG [2], in the assay with SH-SY5Y [3], with MCF7 [4] and in the assay with A549 [5] was above 50 µM in each case. Further, in the assay on MDA-MB-231 [6], the IC50 is above 50 µM.

In the case of `C[C@H]1[C@H](N2CCN(Cc3cccc(F)c3)CC2)O[C@@H]2O[C@@]3(C)CC[C@H]4[C@H](C)CC[C@@H]1[C@@]24OO3`, the IC50 in the assay with L02 [1] was 23.2 µM; in the assay with A-375, 46.5 µM; with U-87 MG [2], above 50 µM; in the assay with SH-SY5Y [3] it was above 50 µM; with MCF7 [4], 6.8 µM; with A549 [5], 44.4 µM. In addition, in the assay with MDA-MB-231 [6], the half-inhibitory concentration (IC50) stood at 32.9 µM.

Regarding `COc1cccc2c1C(=O)c1c(O)c3c(c(O)c1C2=O)C[C@@](O)(C(=O)CO)C[C@@H]3O[C@H]1C[C@H](N)[C@H](O)[C@H](C)O1` [DOXORUBICIN], the IC50 worked out at 0.9 µM in the assay on L02 [1], 0.4 µM in the assay with A-375, 2.3 µM with A549 [5] and 2.8 µM with MDA-MB-231 [6].

As to `C[C@H]1[C@H](NCc2ccc(OC(F)(F)F)cc2)O[C@@H]2O[C@@]3(C)CC[C@H]4[C@H](C)CC[C@@H]1[C@@]24OO3`, the concentration for half-maximal inhibition (IC50) in the assay on L02 [1] was 35.7 µM; in the assay with A-375, 10.9 µM; with U-87 MG [2], 17.7 µM; with SH-SY5Y [3] it was 5 µM; in the assay on MCF7 [4], 10.2 µM; in the assay on A549 [5] it was 17.9 µM. The IC50 in the assay with MDA-MB-231 [6] turned out to be 21.8 µM.

For `C[C@H]1[C@H](N2CCN(c3ccc(C(F)(F)F)cc3)CC2)O[C@@H]2O[C@@]3(C)CC[C@H]4[C@H](C)CC[C@@H]1[C@@]24OO3`, the concentration for half-maximal inhibition (IC50) in the assay on L02 [1] was 20.5 µM; in the assay with A-375, 40.9 µM; with U-87 MG [2], above 50 µM; in the assay with SH-SY5Y [3] it was above 50 µM; with MCF7 [4] it was 27 µM; with A549 [5], above 50 µM. Moreover, the IC50 in the assay on MDA-MB-231 [6] is above 50 µM.

Regarding `C[C@H]1[C@@H](O)O[C@@H]2O[C@@]3(C)CC[C@H]4[C@H](C)CC[C@@H]1[C@@]24OO3` [ARTENIMOL], the IC50 with L02 [1] is 34 µM; with A-375, 38.5 µM; in the assay on U-87 MG [2] it was above 50 µM; with SH-SY5Y [3], above 50 µM; with MCF7 [4] it was above 50 µM; in the assay on A549 [5] it was 46.8 µM. Besides, the 50% inhibitory concentration (IC50) in the assay on MDA-MB-231 [6] turned out to be 45.7 µM.

On to `CCOC(=O)N1CCN([C@@H]2O[C@@H]3O[C@@]4(C)CC[C@H]5[C@H](C)CC[C@@H]([C@H]2C)[C@@]35OO4)CC1`, for which the IC50 in the assay with L02 [7] is above 50 µM; in the assay on A549 [8] it was 19.9 µM; in the assay on SH-SY5Y [9], above 50 µM; with MDA-MB-231 [10] it was 19.2 µM; with U-87 MG [11], above 50 µM; in the assay on MCF7 [12], 15.2 µM.

`Cn1nnc2c(C(N)=O)ncn2c1=O` [TEMOZOLOMIDE]: the half-maximal inhibitory concentration (IC50) in the assay with U-87 MG [2] and in the assay with SH-SY5Y [3] was above 50 µM in each case.

Consider `C[C@H]1[C@H](N2CCN(Cc3ccc(F)cc3)CC2)O[C@@H]2O[C@@]3(C)CC[C@H]4[C@H](C)CC[C@@H]1[C@@]24OO3`, for which the concentration for half-maximal inhibition (IC50) in the assay on L02 [1] was 17.1 µM; in the assay with A-375, 12.8 µM; with U-87 MG [2], above 50 µM; in the assay on SH-SY5Y [3] it was 15 µM; in the assay on MCF7 [4], 3.5 µM; in the assay on A549 [5] it was 35.9 µM. In addition, the IC50 in the assay on MDA-MB-231 [6] is 12 µM.

With `C[C@H]1[C@H](N2CCN(C(=O)Nc3ccc(F)cc3)CC2)O[C@@H]2O[C@@]3(C)CC[C@H]4[C@H](C)CC[C@@H]1[C@@]24OO3`, the IC50 turned out to be 15.6 µM in the assay with L02 [1]; 9.1 µM with A-375; 28.7 µM in the assay with U-87 MG [2]; 5 µM with SH-SY5Y [3]; 5.5 µM with MCF7 [4]; 17.6 µM with A549 [5]. Moreover, the half-inhibitory concentration (IC50) in the assay with MDA-MB-231 [6] stood at 10.9 µM.

Turning to `C[C@H]1[C@H](N2CCN(c3ccc(F)cc3)CC2)O[C@@H]2O[C@@]3(C)CC[C@H]4[C@H](C)CC[C@@H]1[C@@]24OO3`, the IC50 with L02 [1] is 11.2 µM; with A-375 it was above 50 µM; in the assay on U-87 MG [2], 25.5 µM; in the assay with SH-SY5Y [3] it was above 50 µM; in the assay on MCF7 [4], 28.8 µM; with A549 [5], above 50 µM. For the same molecule, the IC50 with MDA-MB-231 [6] was above 50 µM.

With `C[C@H]1[C@H](N2CCN(c3cccc(C(F)(F)F)c3)CC2)O[C@@H]2O[C@@]3(C)CC[C@H]4[C@H](C)CC[C@@H]1[C@@]24OO3`, the IC50 was 9.1 µM with L02 [1]; 20 µM in the assay with A-375; above 50 µM in the assay with U-87 MG [2]; 11.2 µM in the assay on SH-SY5Y [3]; 7.5 µM in the assay with MCF7 [4]; 12.9 µM with A549 [5]. For the same molecule, the IC50 with MDA-MB-231 [6] came to 12.5 µM.
